Patent US20250034182A1, “PHOSPHOLIPID COMPOUNDS AND METHODS OF MAKING AND USING THE SAME” (priority 2021, published 2025)
Read-outs that look alike come from different tables or passages of the source.

Columns and labels:
Assay type in all cases: cell-based
[1] = system: dengue virus type 2 in Huh7 hepatoblastoma cells; assay: Dengue Virus-2 Huh-7 EC50 (Example W); conditions: MOI of 0.07, CPE, neutral red dye, read-out: Dengue Virus-2 Huh-7 EC50 (nM) (per Ex. W)
Outline: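 Huh7 monolayers were infected with dengue virus type 2 (about 2000 CCID50/well, MOI 0.07) in the presence of eight 3-fold compound dilutions, top 50 μg/mL, and incubated until >80% CPE. Viability by neutral red uptake at 540 nm, normalized to virus controls; EC50 and CC50 by linear regression.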

[2] = system: Respiratory syncytial virus recombinant with luciferase (RSV-Luc5) in HEp-2 cells; assay: HEp-2 RSV-Luc5 384-well assay (EC50 RSVFLUC Hep2-384, Example R); conditions: human respiratory syncytial virus, HEp-2, 72 h, read-out: RSV Hep-2 FLuc EC50 (nM) (per Ex. R)
Outline: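 HEp-2 cells (passage 5-20, DMEM + 10% FBS) seeded 4,000/well overnight, then given 10-point 1:3 compound dilutions and RSV-Luc5 at MOI 0.5 for 3 days at 37 °C. Replication read by One-Glo luminescence, normalized to remdesivir (0%) and DMSO (100%); EC50 from non-linear regression.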

[3] = HCV Replicon 1B CC50, calcein AM (Example Q); conditions: calcein AM fluorescence, read-out: HCV Replicon 1B CC50 (nM) (per Ex. Q)
Protocol: Compounds were serially diluted in ten steps of 1:3 dilutions in 384-well plates. All serial dilutions were performed in four replicates per compound within the same 384-well plate. An HCV protease inhibitor ITMN-191 at […] was added as a control of 100% inhibition of HCV replication while puromycin at 10 mM was included as a control of 100% cytotoxicity. To each well of a black polystyrene 384-well plate (Greiner Bio-one, Monroe, NC), 90 μL of cell culture medium (without Geneticin) containing 2000 suspended HCV replicon cells was added with a Biotek μFlow workstation. For compound transfer into cell culture plates, 0.4 μL of compound solution from the compound serial dilution plate was transferred to the cell culture plate on a Biomek FX workstation. The DMSO concentration in the final assay wells was 0.44%. The plates were incubated for 3 days at 37° C. with 5% CO2 and 85% humidity. The HCV replicon assay was a multiplex assay, able to assess both cytotoxicity and antireplicon activity from the same well. The CC50 assay was performed first. The media in the 384-well cell culture plate was aspirated, and the wells were washed four times with 100 μL of PBS each, using a Biotek ELX405 plate washer. A volume of 50 μL of a solution containing 400 nM calcein AM (Anaspec, Fremont, CA) in 1×PBS was added to each well of the plate with a Biotek μFlow workstation. The plate was incubated for 30 min at room temperature before the fluorescence signal (excitation 490 nm, emission 520 nm) was measured with a Perkin-Elmer Envision plate reader. The EC50 assay was performed in the same wells as the CC50 assay. The calcein-PBS solution in the 384-well cell culture plate was aspirated with a Biotek ELX405 plate washer. A volume of 20 μL of Dual-Glo luciferase buffer (Promega, Madison, WI) was added to each well of the plate with a Biotek μFlow Workstation. The plate was incubated for 10 min at room temperature. A volume of 20 μL of a solution containing a 1:100 mixture of Dual-Glo Stop & Glo substrate (Promega, Madison, WI) and Dual-Glo Stop & Glo buffer (Promega, Madison, WI) was added to each well of the plate with a Biotek μFlow Workstation. The plate was then incubated at room temperature for 10 min before the luminescence signal was measured with a Perkin-Elmer Envision Plate Reader.

Compound | EC50 [1] [nM] | EC50 [2] [nM] | CC50 at 3 days ([3]; HCV replicon cells (1B)) [nM] | CC50 at 3 days ([3]; HCV replicon cells) [nM]
CCCCCCCCCCCCCCCCCCOC[C@H](COP(=O)(O)OC[C@@]1(C#N)O[C@@H](c2ccc3c(N)ncnn23)[C@H](O)[C@@H]1O)OCc1ccc(C#N)c(Cl)c1 [Compound 7, ((2R,3S,4R,5S)-5-(4-aminopyrrolo[2,1-f][1,2,4]triazin-7-yl)-2-cyano-3,4-dihydroxytetrahydrofuran-2-yl)methyl ((R)-2-((3-chloro-4-cyanobenzyl)oxy)-3-(octadecyloxy)propyl) hydrogen phosphate] | 8700 | 84 | > 44400 | 
CCCCCCCCCCCCCCCCC[C@H](COP(=O)(O)OC[C@@]1(C#N)O[C@@H](c2ccc3c(N)ncnn23)[C@H](O)[C@@H]1O)OCc1cc(F)cc(C#N)c1 [Compound 36, ((2R,3S,4R,5S)-5-(4-aminopyrrolo[2,1-f][1,2,4]triazin-7-yl)-2-cyano-3,4-dihydroxytetrahydrofuran-2-yl)methyl ((R)-2-((3-cyano-5-fluorobenzyl)oxy)nonadecyl) hydrogen phosphate] | 10000 | 155 |  | > 44400
CCCCCCCCCCCCCCCCCC[C@@H](COP(=O)(O)OC[C@@]1(C#N)O[C@@H](c2ccc3c(N)ncnn23)[C@H](O)[C@@H]1O)OCc1cc(F)cc(C#N)c1 [Compound 37, ((2R,3S,4R)-5-(4-aminopyrrolo[2,1-f][1,2,4]triazin-7-yl)-2-cyano-3,4-dihydroxytetrahydrofuran-2-yl)methyl ((S)-2-((3-cyano-5-fluorobenzyl)oxy)icosyl) hydrogen phosphate] | 11000 | 304 | > 44400 | 
CCCCCCCCCCCCCCCCCCCC[C@H](COP(=O)(O)OC[C@@]1(C#N)O[C@@H](c2ccc3c(N)ncnn23)[C@H](O)[C@@H]1O)Oc1cccc(C#N)c1 [Compound 51, ((2R,3S,4R,5S)-5-(4-aminopyrrolo[2,1-f][1,2,4]triazin-7-yl)-2-cyano-3,4-dihydroxytetrahydrofuran-2-yl)methyl ((R)-2-(3-cyanophenoxy)docosyl) hydrogen phosphate] | 11000 | 421 | > 44400 | 
CCCCCCCCCCCCCCCCCOC[C@H](COP(=O)(O)OC[C@@]1(C#N)O[C@@H](c2ccc3c(N)ncnn23)[C@H](O)[C@@H]1O)OCc1cc(F)cc(C#N)c1 [Compound 53, ((2R,3S,4R,5S)-5-(4-aminopyrrolo[2,1-f][1,2,4]triazin-7-yl)-2-cyano-3,4-dihydroxytetrahydrofuran-2-yl)methyl ((R)-2-((3-cyano-5-fluorobenzyl)oxy)-3-(heptadecyloxy)propyl) hydrogen phosphate] | 9900 | 113 | > 44400 | 
CCCCCCCCCCCCCCCCCCOC[C@H](COP(=O)(O)OC[C@@]1(C#N)O[C@@H](c2ccc3c(N)ncnn23)[C@H](O)[C@@H]1O)OCc1ccc(C#N)cc1OC [Compound 73, ((2R,3S,4R)-5-(4-aminopyrrolo[2,1-f][1,2,4]triazin-7-yl)-2-cyano-3,4-dihydroxytetrahydrofuran-2-yl)methyl ((R)-2-((4-cyano-2-methoxybenzyl)oxy)-3-(octadecyloxy)propyl) hydrogen phosphate] | 9500 | 195 | > 44400 | 
